Assay results reported in PubChem BioAssay AID192 (DTP/NCI, 2004).
Values joined by “and” are separate entries in the source; they are usually repeats but may differ in a detail not shown here. Equal entries are not always repeated. Inconclusive results and toxic doses are left out. Rule for the calls: active = survival T/C of 150% or more; inactive = T/C below 125% in these data.

Tested on: BDF1 mice, B16 melanoma ip, median survival T/C
Test: NCI In Vivo Anticancer Drug Screen. Data for tumor model B16 Melanoma (intraperitoneal) in B6D2F1 (BDF1) mice
Details: endpoint: median survival time, higher = longer survival
Summary of the method: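 Read-out: survival or tumor size, given as treated/control ratio. Controls received vehicle only; animals bore transplantable tumors.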

[1] = dose: 25.0 mg/kg/injection, schedule: Q01DX009 (ip), vehicle: Klucel (hydroxypropylcellulose) (HPC)
[2] = dose: 50.0 mg/kg/injection, schedule: Q01DX009 (ip), vehicle: Klucel (hydroxypropylcellulose) (HPC)
[3] = dose: 100.0 mg/kg/injection, schedule: Q01DX009 (ip), vehicle: Klucel (hydroxypropylcellulose) (HPC)
[4] = dose: 6.25 mg/kg/injection, schedule: Q01DX009 (ip), vehicle: saline with Tween-80
[5] = dose: 25.0 mg/kg/injection, schedule: Q01DX009 (ip), vehicle: saline with Tween-80
[6] = dose: 12.5 mg/kg/injection, schedule: Q01DX009 (ip), vehicle: saline with Tween-80
[7] = dose: 50.0 mg/kg/injection, schedule: Q01DX009 (ip), vehicle: saline with Tween-80
[8] = dose: 200.0 mg/kg/injection, schedule: Q01DX009 (ip), vehicle: Klucel (hydroxypropylcellulose) (HPC)
[9] = dose: 400.0 mg/kg/injection, schedule: Q01DX009 (ip), vehicle: Klucel (hydroxypropylcellulose) (HPC)
[10] = dose: 100.0 mg/kg/injection, schedule: Q01DX009 (ip), vehicle: saline
[11] = dose: 200.0 mg/kg/injection, schedule: Q01DX009 (ip), vehicle: saline
[12] = dose: 100.0 mg/kg/injection, schedule: Q01DX009 (ip), vehicle: saline with Tween-80
[13] = dose: 200.0 mg/kg/injection, schedule: Q01DX009 (ip), vehicle: saline with Tween-80
[14] = dose: 6.25 mg/kg/injection, schedule: Q01DX009 (ip), vehicle: saline
[15] = dose: 12.5 mg/kg/injection, schedule: Q01DX009 (ip), vehicle: saline
[16] = dose: 25.0 mg/kg/injection, schedule: Q01DX009 (ip), vehicle: saline
[17] = dose: 50.0 mg/kg/injection, schedule: Q01DX009 (ip), vehicle: saline
[18] = dose: 400.0 mg/kg/injection, schedule: Q01DX009 (ip), vehicle: saline with Tween-80
[19] = dose: 7.5 mg/kg/injection, schedule: Q01DX009 (ip), vehicle: saline with Tween-80

Measured: T/C

C=C1CCN(c2ccccc2Cl)C1=O
inactive: dose: 4.0 mg/kg/injection, schedule: Q01DX009 (ip), vehicle: saline + alcohol 104 % of control | dose: 8.0 mg/kg/injection, schedule: Q01DX009 (ip), vehicle: saline + alcohol 98 % of control | dose: 16.0 mg/kg/injection, schedule: Q01DX009 (ip), vehicle: saline + alcohol 101 % of control | dose: 32.0 mg/kg/injection, schedule: Q01DX009 (ip), vehicle: saline + alcohol 121 % of control

COc1ccc(N2C(=O)CC(Sc3ccccc3N)C2=O)cc1 (configuration not stated)
inactive: [1] 94 % of control | [2] 86 % of control | [3] 97 % of control

O=C(Nc1ccc(Cl)c(Cl)c1)Nc1c(Oc2ccc(Cl)c(Cl)c2)ccc(Cl)c1S(=O)(=O)O
inactive: dose: 3.12 mg/kg/injection, schedule: Q01DX009 (ip), vehicle: Klucel (hydroxypropylcellulose) (HPC) 119 % of control | dose: 6.25 mg/kg/injection, schedule: Q01DX009 (ip), vehicle: Klucel (hydroxypropylcellulose) (HPC) 105 % of control | [4] 122 % of control | dose: 12.5 mg/kg/injection, schedule: Q01DX009 (ip), vehicle: Klucel (hydroxypropylcellulose) (HPC) 105 % of control | [1] 116 % of control | [5] 122 % of control | [2] 112 % of control | [3] 123 % of control

CCCCC(=O)NN
inactive: [6] 102 % of control | [5] 96 % of control | [7] 100 % of control

O=C(/C(=C\c1ccccc1)CBr)c1ccccc1
inactive: dose: 0.12 mg/kg/injection, schedule: Q01DX009 (ip), vehicle: Klucel (hydroxypropylcellulose) (HPC) 101 % of control | dose: 0.25 mg/kg/injection, schedule: Q01DX009 (ip), vehicle: Klucel (hydroxypropylcellulose) (HPC) 88 % of control | dose: 0.5 mg/kg/injection, schedule: Q01DX009 (ip), vehicle: Klucel (hydroxypropylcellulose) (HPC) 88 % of control

BrC1c2cccc3cccc(c23)C1Br (configuration not stated)
inactive: [4] 116 % of control | [6] 113 % of control | [5] 124 % of control | [7] 121 % of control

CCCCC(CCCC)(C(N)=O)C(=O)OCC
inactive: [3] 106 % of control | [8] 100 % of control | [9] 103 % of control

CC(=O)NCCCCCCNC(C)=O
inactive: [10] 101 % of control | [11] 105 % of control | dose: 400.0 mg/kg/injection, schedule: Q01DX009 (ip), vehicle: saline 87 % of control | dose: 800.0 mg/kg/injection, schedule: Q01DX009 (ip), vehicle: saline 105 % of control

Cc1cc(C)c(NC(=O)NC(C)C)c(C)c1
inactive: dose: 100.0 mg/kg/injection, schedule: Q04DX003 (ip), vehicle: Klucel (hydroxypropylcellulose) (HPC) 100 % of control | dose: 200.0 mg/kg/injection, schedule: Q04DX003 (ip), vehicle: Klucel (hydroxypropylcellulose) (HPC) 90 % of control | dose: 400.0 mg/kg/injection, schedule: Q04DX003 (ip), vehicle: Klucel (hydroxypropylcellulose) (HPC) 87 % of control

CC(C)Nc1ccc(Nc2ccc(NC(C)C)cc2)cc1
inactive: dose: 4.5 mg/kg/injection, schedule: Q01DX009 (ip), vehicle: alcohol 100 % of control | dose: 6.75 mg/kg/injection, schedule: Q04DX003 (ip), vehicle: alcohol 102 % of control | dose: 9.0 mg/kg/injection, schedule: Q01DX009 (ip), vehicle: alcohol 92 % of control | dose: 13.5 mg/kg/injection, schedule: Q04DX003 (ip), vehicle: alcohol 92 % of control and 97 % of control

CCc1ccc(C(=O)CCCCl)cc1
inactive: [7] 102 % of control | [12] 100 % of control | [13] 109 % of control

CCCCNC(=O)Nc1cc(C)ccc1C
inactive: [3] 100 % of control | [8] 100 % of control

O=[N+]([O-])c1cccc(N=P(c2ccccc2)(c2ccccc2)c2ccccc2)c1
inactive: [3] 97 % of control | [8] 101 % of control | [9] 94 % of control

CNC(C)CC1CCCCC1 (configuration not stated)
inactive: dose: 3.12 mg/kg/injection, schedule: Q01DX009 (ip), vehicle: saline 100 % of control | [14] 100 % of control | [15] 100 % of control | [16] 95 % of control

O=C1c2cc(Br)cc(Br)c2NCCCC1(Br)Br
inactive: dose: 75.0 mg/kg/injection, schedule: Q04DX003 (ip), vehicle: Klucel (hydroxypropylcellulose) (HPC) 102 % of control | dose: 150.0 mg/kg/injection, schedule: Q04DX003 (ip), vehicle: Klucel (hydroxypropylcellulose) (HPC) 95 % of control | dose: 300.0 mg/kg/injection, schedule: Q04DX003 (ip), vehicle: Klucel (hydroxypropylcellulose) (HPC) 96 % of control

Cc1nnc(NS(=O)(=O)c2ccc(N=Nc3nc4[nH]c(N)nc(=S)c4[nH]3)cc2)s1
inactive: [5] 112 % of control | [7] 100 % of control | [12] 92 % of control

Cc1cc(NCCCCCCCNc2cc(C)nc3cc(N)ccc23)c2ccc(N)cc2n1
inactive: dose: 0.78 mg/kg/injection, schedule: Q01DX009 (ip), vehicle: saline with Tween-80 99 % of control | dose: 1.56 mg/kg/injection, schedule: Q01DX009 (ip), vehicle: saline with Tween-80 100 % of control | dose: 3.12 mg/kg/injection, schedule: Q01DX009 (ip), vehicle: saline with Tween-80 113 % of control | [4] 103 % of control | [6] 100 % of control

O=C(O)c1cc(-c2ccc(Cl)cc2)nc2c(-c3ccccc3)cccc12
inactive: [6] 87 % of control | [5] 105 % of control | [7] 87 % of control and 94 % of control | [12] 86 % of control | [13] 87 % of control

COC(=O)[c-]1[c-][c-][c-][c-]1.COC(=O)[c-]1[c-][c-][c-][c-]1.[Fe]
inactive: dose: 18.0 mg/kg/injection, schedule: Q01DX009 (ip), vehicle: Klucel (hydroxypropylcellulose) (HPC) 95 % of control and 103 % of control | dose: 28.75 mg/kg/injection, schedule: Q01DX009 (ip), vehicle: Klucel (hydroxypropylcellulose) (HPC) 104 % of control and 106 % of control | dose: 33.75 mg/kg/injection, schedule: Q04DX003 (ip), vehicle: Klucel (hydroxypropylcellulose) (HPC) 114 % of control | dose: 45.0 mg/kg/injection, schedule: Q01DX009 (ip), vehicle: Klucel (hydroxypropylcellulose) (HPC) 103 % of control and 118 % of control | dose: 67.5 mg/kg/injection, schedule: Q04DX003 (ip), vehicle: Klucel (hydroxypropylcellulose) (HPC) 92 % of control

COc1c2c(cc3c1OCO3)CCN(C)C2
inactive: dose: 10.0 mg/kg/injection, schedule: Q01DX009 (ip), vehicle: saline 95 % of control | dose: 20.0 mg/kg/injection, schedule: Q01DX009 (ip), vehicle: saline 99 % of control | dose: 40.0 mg/kg/injection, schedule: Q01DX009 (ip), vehicle: saline 100 % of control | dose: 80.0 mg/kg/injection, schedule: Q01DX009 (ip), vehicle: saline 91 % of control

C1=C(c2ccccc2)CCC1
inactive: [17] 97 % of control | [10] 88 % of control

C(CSC1=NCCN1)CSC1=NCCN1
inactive: [14] 97 % of control and 102 % of control | [15] 98 % of control and 107 % of control | [16] 105 % of control and 107 % of control | [17] 96 % of control and 117 % of control | [10] 101 % of control and 112 % of control | [11] 107 % of control

c1ccc(-c2nc3ccc4ccccc4c3nc2-c2ccccc2)cc1
inactive: [12] 100 % of control | [13] 118 % of control | [18] 95 % of control

C#CCN(C)/N=N/c1nc[nH]c1C(N)=O
inactive: [6] 97 % of control | [5] 111 % of control | [7] 124 % of control

O=C(Nc1ccc(NC2=NCCN2)cc1)c1cccc(C(=O)Nc2ccc(NC3=NCCN3)cc2)c1
inactive: [19] 105 % of control | dose: 7.5 mg/kg/injection, schedule: Q04DX003 (ip), vehicle: saline with Tween-80 100 % of control | dose: 15.0 mg/kg/injection, schedule: Q01DX009 (ip), vehicle: saline with Tween-80 92 % of control | dose: 15.0 mg/kg/injection, schedule: Q04DX003 (ip), vehicle: saline with Tween-80 88 % of control | dose: 30.0 mg/kg/injection, schedule: Q04DX003 (ip), vehicle: saline with Tween-80 100 % of control

OCC1OCCO1
inactive: [12] 96 % of control | [13] 93 % of control

CC(=O)O[C@H]1[C@H]2O[C@]23[C@@H]2CC[C@@H]4C[C@@H](O)CC[C@]4(C)[C@H]2CC[C@]3(C)[C@H]1c1ccc(=O)oc1
inactive: dose: 3.75 mg/kg/injection, schedule: Q01DX009 (ip), vehicle: saline with Tween-80 92 % of control | [19] 90 % of control

O=[N+]([O-])c1ccc(/C=C/c2ccc([N+](=O)[O-])cc2S(=O)(=O)O)c(S(=O)(=O)O)c1
inactive: [12] 104 % of control | [13] 95 % of control | [18] 109 % of control
